# Molecular target: T1, menin-MLL interaction (Homo sapiens, UniProt O00255)
# T1 sequence (O00255 1-610): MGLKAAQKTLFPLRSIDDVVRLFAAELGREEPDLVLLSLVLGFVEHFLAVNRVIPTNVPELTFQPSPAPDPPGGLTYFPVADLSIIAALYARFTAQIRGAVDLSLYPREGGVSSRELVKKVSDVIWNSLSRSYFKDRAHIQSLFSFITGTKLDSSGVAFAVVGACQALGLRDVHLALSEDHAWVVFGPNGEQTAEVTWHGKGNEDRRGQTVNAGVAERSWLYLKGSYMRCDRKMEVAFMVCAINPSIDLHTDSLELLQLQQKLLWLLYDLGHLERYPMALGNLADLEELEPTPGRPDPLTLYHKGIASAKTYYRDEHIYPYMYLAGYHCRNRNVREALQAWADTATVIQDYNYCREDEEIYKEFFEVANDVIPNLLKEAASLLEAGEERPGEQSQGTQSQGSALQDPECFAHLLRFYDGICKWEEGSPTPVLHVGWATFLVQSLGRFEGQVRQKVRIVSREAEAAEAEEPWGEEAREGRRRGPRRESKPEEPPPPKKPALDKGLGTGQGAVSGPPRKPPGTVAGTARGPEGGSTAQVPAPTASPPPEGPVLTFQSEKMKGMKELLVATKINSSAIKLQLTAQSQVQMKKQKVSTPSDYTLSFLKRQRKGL
# Experiment: biochemical
# Description: Compounds that inhibit the interaction decrease the fluorescence anisotropy which is being used as a read-out for compound screening and for IC50 determination.
row,IC50,Structure (SMILES)
1,500 to 2000 nM,CCCc1cc2c(NC3CCN(Cc4ccccc4Cl)CC3)ncnc2s1 [Compound 154]
2,100 to 500 nM,N#Cc1cc2cc(CN3CCC(Nc4ncnc5sc(CC(F)(F)F)cc45)CC3)cc(F)c2[nH]1 [Compound 245]
3,500 to 2000 nM,COc1ccc(CN2CCC(CNc3ncnc4sc(CC(F)(F)F)cc34)CC2)cc1 [Compound 273]
4,500 to 2000 nM,CN1CCN(Cc2ccc(CN3CCC(Nc4ncnc5sc(CC(F)(F)F)cc45)CC3)cc2)CC1 [Compound 143]
5,< 100 nM,N#Cc1cc2cc(CN3CCC(Nc4ncnc5sc(CC(F)(F)F)cc45)CC3)ccc2n1CCn1cccn1 [Compound 196]
6,< 100 nM,CC(=O)NCCn1c(C#N)cc2cc(CN3CCC(Nc4ncnc5sc(CC(F)(F)F)cc45)CC3)ccc21 [Compound 208]
7,< 100 nM,N#Cc1cc2cc(CN3CCC(Nc4ncnc5sc(CC(F)(F)F)cc45)C(N)C3)ccc2n1CC1CC1 (centres unmarked) [Compound 162]
8,< 100 nM,CCc1c(CN2CCC(Nc3ncnc4sc(CC(F)(F)F)cc34)CC2)ccc2[nH]c(C#N)cc12 [Compound 295]
9,100 to 500 nM,O=C(Cc1ccc(Cc2ccoc2)cc1)N1CCN(c2ncnc3sc(CC(F)(F)F)cc23)CC1 [Compound 76]
10,100 to 500 nM,O=C(Cc1ccccc1O)N1CCN(c2ncnc3sc(CC(F)(F)F)cc23)CC1 [Compound 68]
11,100 to 500 nM,N#Cc1cc2cc(CN3CCC(Nc4ncnc5sc(CC(F)(F)F)cc45)CC3)cc(F)c2n1CC(N)=O [Compound 246]
12,< 100 nM,CS(=O)(=O)OCCn1c(C#N)cc2cc(CN3CCC(Nc4ncnc5sc(CC(F)(F)F)cc45)CC3)ccc21 [Compound 395]
13,500 to 2000 nM,N#C[C@@H]1C[C@@H]1c1ccc(CN2CCC(Nc3ncnc4sc(CC(F)(F)F)cc34)CC2)cc1 [Compound 159]
14,< 100 nM,Cc1c(CN2CCC(Nc3ncnc4sc(CC(F)(F)F)cc34)CC2)ccc2c1cc(C#N)n2CC(N)=O [Compound 301]
15,100 to 500 nM,O=C(Cc1ccccc1)N1CCN(c2ncnc3sc(CC(F)(F)F)cc23)CC1 [Compound 67]
16,< 100 nM,COCCOCC(O)(CO)Cn1c(C#N)cc2cc(CN3CCC(Nc4ncnc5sc(CC(F)(F)F)cc45)CC3)ccc21 (centres unmarked) [Compound 314]
17,100 to 500 nM,FC(F)(F)Cc1cc2c(N(NCc3ccccc3)C3CCN(Cc4ccccc4)CC3)ncnc2s1 [Compound 124]

row,IC50,Structure (SMILES)
1,< 100 nM,N#Cc1cc2c(CCO)c(CN3CCC(Nc4ncnc5sc(CC(F)(F)F)cc45)CC3)ccc2[nH]1 [Compound 296]
2,500 to 2000 nM,O=C(CCc1ccccc1)N1CCN(c2ncnc3sc(CC(F)(F)F)cc23)CC1 [Compound 88]
3,100 to 500 nM,CS(=O)(=O)N1CCC[C@H]1CN[C@H]1CN(Cc2ccccc2)CC[C@@H]1Nc1ncnc2sc(CC(F)(F)F)cc12 [Compound 172]
4,100 to 500 nM,FC(F)(F)Cc1cc2c(N[C@H]3CCN(Cc4ccccc4)C[C@@H]3OCc3ccccc3)ccnc2s1 [Compound 174]
5,< 100 nM,N#Cc1cc2cc(CN3CCC(Nc4ncnc5sc(CC(F)(F)F)cc45)CC3)ccc2n1CS(N)(=O)=O [Compound 210]
6,< 100 nM,N#Cc1cc2c(C=O)c(CN3CCC(Nc4ncnc5sc(CC(F)(F)F)cc45)CC3)ccc2n1Cc1cn[nH]c1 [Compound 352]
7,500 to 2000 nM,FC(F)(F)Cc1sc2ncnc3c2c1CNN3C1CCN(Cc2ccccc2)CC1 [Compound 158]
8,100 to 500 nM,CS(=O)(=O)c1cc2cc(CN3CCC(Nc4ncnc5sc(CC(F)(F)F)cc45)CC3)ccc2[nH]1 [Compound 236]
9,100 to 500 nM,FC(F)(F)Cc1cc2c(NC3CCN(Cc4ccccc4Cl)CC3)ncnc2s1 [Compound 119]
10,500 to 2000 nM,CCCc1cc2c(NC3CCN(Cc4ccccc4)CC3)ncnc2s1 [Compound 149]
11,100 to 500 nM,O=C(Cc1ccc(F)cc1)N1CCN(c2ncnc3sc(CC(F)(F)F)cc23)CC1 [Compound 75]
12,500 to 2000 nM,Cc1ccc(CN2CCC(CNc3ncnc4sc(CC(F)(F)F)cc34)CC2)cc1 [Compound 275]
13,500 to 2000 nM,NCc1ccc(CN2CCC(CNc3ncnc4sc(CC(F)(F)F)cc34)CC2)cc1 [Compound 265]
14,100 to 500 nM,FC(F)(F)Cc1cc2c(NCC3CCN(Cc4ccccc4Cl)CC3)ncnc2s1 [Compound 260]
15,100 to 500 nM,O[C@@H]1CN(Cc2ccccc2)CC[C@H]1Nc1ncnc2sc(CC(F)(F)F)cc12 (relative stereo) [Compound 165]
16,< 100 nM,N#Cc1cc2c(Br)c(CN3CCC(Nc4ncnc5sc(CC(F)(F)F)cc45)CC3)ccc2n1CC(N)=O [Compound 307]

# The remaining lines, values behind:
row,Structure (SMILES),IC50
1,CN(C)CCS(=O)(=O)Nc1ccc(CC(=O)N2CCN(c3ncnc4sc(CC(F)(F)F)cc34)CC2)cc1 [Compound 59],< 100 nM
2,N#Cc1cc2c(C(F)F)c(CN3CCC(Nc4ncnc5sc(CC(F)(F)F)cc45)CC3)ccc2n1CC(N)=O [Compound 310],< 100 nM
3,CS(=O)(=O)N(CC#N)c1ccc(CC(=O)N2CCN(C3=NC=NC4SC(CC(F)(F)F)=CC34)CC2)c(Cl)c1 (centres unmarked) [Compound 63],< 100 nM
4,Cc1c(CN2CCC(Nc3ncnc4sc(CC(F)(F)F)cc34)CC2)ccc2c1cc(C#N)n2Cc1cnc[nH]1 [Compound 349],< 100 nM
5,"N#Cc1cc2cc(CN3CCC(Nc4ncnc5sc(CC(F)(F)F)cc45)CC3)c(O)cc2[nH]1 [Compound 182, 6-hydroxy-5-((4-((6-(2,2,2-trifluoroethyl)thieno[2,3-d]pyrimidin-4-yl)amino)pipendin-1-yl)methyl)-1H-indole-2-carbonitrile]",< 100 nM
6,N#Cc1cc2cc(CN3CCC(Nc4c(COCCCC5CCCC5)cnc5sc(CC(F)(F)F)cc45)CC3)ccc2[nH]1 [Compound 419],500 to 2000 nM
7,O=C(Cc1ccc(NS(=O)(=O)N2CCCCC2)cc1Cl)N1CCN(C2=NC=NC3SC(CC(F)(F)F)=CC23)CC1 (centres unmarked) [Compound 284],< 100 nM
8,Cc1c(CC(F)(F)F)sc2ncnc(N3CCN(c4nnc(C(F)(F)F)s4)CC3)c12 [Compound 7],100 to 500 nM
9,Cc1ncc(Cn2c(C#N)cc3c(C)c(CN4CCC(Nc5ncnc6sc(CC(F)(F)F)cc56)CC4)ccc32)[nH]1 [Compound 351],< 100 nM
10,Cc1c(CN2CCC(Nc3ncnc4sc(CC(F)(F)F)cc34)CC2)ccc2c1cc(C#N)n2CC(O)(CO)CCn1ccnn1 (centres unmarked) [Compound 373],< 100 nM
11,CNCCS(=O)(=O)Nc1ccc(CC(=O)N2CCN(c3ncnc4sc(CC(F)(F)F)cc34)CC2)cc1 [Compound 58],< 100 nM
12,Cc1c(CN2CCC(Nc3ncnc4sc(CC(F)(F)F)cc34)CC2)ccc2c1cc(C#N)n2Cc1cnco1 [Compound 361],< 100 nM
13,Cc1c(CN2CCC(Nc3ncnc4sc(CC(F)(F)F)cc34)CC2)ccc2c1cc(C#N)n2CCN1CCN(S(=O)(=O)N(C)C)CC1 [Compound 375],< 100 nM
14,COc1ccc(CCCc2nnc(N3CCN(c4ncnc5sc(CC(F)(F)F)cc45)CC3)s2)cc1 [Compound 12],100 to 500 nM
15,CCOc1cc2[nH]c(C#N)cc2cc1CN1CCC(Nc2ncnc3sc(CC(F)(F)F)cc23)CC1 [Compound 215],< 100 nM
16,CC(=O)NCCS(=O)(=O)Nc1ccc(CC(=O)N2CCN(c3ncnc4sc(CC(F)(F)F)cc34)CC2)cc1 [Compound 57],< 100 nM

row,Structure (SMILES),IC50
1,N#Cc1cc2cc(CN3CCC(Nc4ncnc5sc(CC(F)(F)F)cc45)CC3)ccc2n1CC(O)(CO)COCCC1CCCCC1 (centres unmarked) [Compound 413],100 to 500 nM
2,Cc1c(CN2CCC(Nc3ncnc4sc(CC(F)(F)F)cc34)CC2)c(O)cc2c1cc(C#N)n2Cc1c[nH]nn1 [Compound 391],< 100 nM
3,CCCc1cc2c(N3CCN(C4CCCCCC4)CC3)ncnc2s1 [Compound 31],500 to 2000 nM
4,CC(C)N(c1ccc(CC(=O)N2CCN(c3ncnc4sc(CC(F)(F)F)cc34)CC2)cc1)S(C)(=O)=O [Compound 103],500 to 2000 nM
5,Cc1c(CN2CCC(Nc3ncnc4sc(CC(F)(F)F)cc34)CC2)ccc2c1cc(C#N)n2CCN1CCOC(CO)C1 (centres unmarked) [Compound 362],< 100 nM
6,COc1cc2c(cc1CN1CCC(Nc3ncnc4sc(CC(F)(F)F)cc34)CC1)cc(C#N)n2Cc1cn[nH]c1 [Compound 390],< 100 nM
7,CCCCS(=O)(=O)Nc1ccc(CC(=O)N2CCN(c3ncnc4sc(CC(F)(F)F)cc34)CC2)cc1 [Compound 54],< 100 nM
8,N#Cc1cc2cc(CN3CCC(Nc4ncnc5sc(CC(F)(F)F)cc45)CC3)c(O)cc2n1Cc1cn[nH]c1 [Compound 382],< 100 nM
9,COc1cc2c(cc(C#N)n2CCO)c(C)c1CN1CCC(Nc2ncnc3sc(CC(F)(F)F)cc23)CC1 [Compound 386],< 100 nM
10,Cc1c(CN2CCC(Nc3ncnc4sc(CC(F)(F)F)cc34)CC2)ncc2[nH]c(C#N)cc12 [Compound 380],< 100 nM
11,Cc1c(CN2CCC(Nc3ncnc4sc(CC(F)(F)F)cc34)CC2)ccc2c1cc(C#N)n2CCN1CCCCC1 [Compound 329],< 100 nM
12,Cc1c(CN2CCC(Nc3ncnc4sc(CC(F)(F)F)cc34)CC2)c(O)cc2c1cc(C#N)n2CCO [Compound 387],< 100 nM
13,CCCCC(O)(CO)Cn1c(C#N)cc2c(C)c(CN3CCC(Nc4ncnc5sc(CC(F)(F)F)cc45)CC3)ccc21 (centres unmarked) [Compound 338],< 100 nM
14,Cc1c(CN2CCC(Nc3ncnc4sc(CC(F)(F)F)cc34)CC2)ccc2c1cc(C#N)n2CC(O)(CO)CCC1CCCCC1 (centres unmarked) [Compound 346],< 100 nM
15,Cc1c(CN2CCC(Nc3ncnc4sc(CC(F)(F)F)cc34)CC2)ccc2c1cc(C#N)n2Cc1nccs1 [Compound 326],< 100 nM
16,O=C(Cc1ccc(NS(=O)(=O)N2CCOCC2)cc1)N1CCN(c2ncnc3sc(CC(F)(F)F)cc23)CC1 [Compound 53],< 100 nM
